Where a name gives a salt, the structure may show the parent alone.
Molecular target: abnormal prion protein (Mus musculus, UniProt P04925)
Test: cell-based

abnormal prion protein, sequence (P04925 23-230 limits assumed): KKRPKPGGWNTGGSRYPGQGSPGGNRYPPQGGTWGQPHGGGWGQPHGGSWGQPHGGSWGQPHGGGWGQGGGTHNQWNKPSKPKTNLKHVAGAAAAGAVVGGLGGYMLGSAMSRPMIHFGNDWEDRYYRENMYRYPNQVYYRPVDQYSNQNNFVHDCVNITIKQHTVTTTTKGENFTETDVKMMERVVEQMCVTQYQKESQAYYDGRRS

## O=C(CN1CCCC1)Nc1ccc(C(c2ccc(NC(=O)CN3CCCC3)cc2)C2CCCCC2)cc1 [maleic acid salt, N,N′-[(cyclohexylmethylene)di-4,1-phenylene]bis[2-(1-pyrrolidinyl)acetamide] maleate]
  IC50: 460 ± 200 nM

From US9809563B2 (GIFU University, priority 2014, dated 2017)
